This note sets out measurements from the supplement of paper PMC10307832.

What all share (test): relative viability (nuclei count vs DMSO), 5 days (fraction); higher = more cells survive
Compound in the assay “Palbociclib + Trametinib”: CC(=O)c1c(C)c2cnc(Nc3ccc(N4CCNCC4)cn3)nc2n(C2CCCC2)c1=O [Palbociclib] + CC(=O)Nc1cccc(-n2c(=O)n(C3CC3)c(=O)c3c(Nc4ccc(I)cc4F)n(C)c(=O)c(C)c32)c1 [Trametinib] (partner 0.02 µM)
A digest of the protocol: (§1)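 Nuclei were stained with Hoechst during a one-step fixation (final 0.05% Triton X-100, 1% formaldehyde, 1 ug/ml Hoechst) carried out 5 days after dosing, then counted on 4× images. The cells, lung cancer lines in 1536-well plates, had been dosed by pin tool the day after seeding with one drug alone or a fixed anchor-drug dose plus five library-drug doses (not always all listed) in √10 steps. Relative viability is the nuclei count in treated wells divided by that in vehicle wells, and each value is the median of duplicate plates.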

Compound in the assay “Palbociclib + Navitoclax”: CC(=O)c1c(C)c2cnc(Nc3ccc(N4CCNCC4)cn3)nc2n(C2CCCC2)c1=O [Palbociclib] + CC1(C)CCC(c2ccc(Cl)cc2)=C(CN2CCN(c3ccc(C(=O)NS(=O)(=O)c4ccc(N[C@H](CCN5CCOCC5)CSc5ccccc5)c(S(=O)(=O)C(F)(F)F)c4)cc3)CC2)C1 [Navitoclax] (partner 0.5 µM)
The procedure, abridged: as §1

Compound in the assay “Palbociclib + Luminespib”: CC(=O)c1c(C)c2cnc(Nc3ccc(N4CCNCC4)cn3)nc2n(C2CCCC2)c1=O [Palbociclib] + CCNC(=O)c1noc(-c2cc(C(C)C)c(O)cc2O)c1-c1ccc(CN2CCOCC2)cc1 [Luminespib] (partner 0.01 µM)
The procedure, abridged:
as §1

Compound in the assay “Palbociclib + Phenformin”: CC(=O)c1c(C)c2cnc(Nc3ccc(N4CCNCC4)cn3)nc2n(C2CCCC2)c1=O [Palbociclib] + N=C(N)NC(=N)NCCc1ccccc1 [Phenformin] (partner 250 µM)
The procedure, abridged: as §1

As for SK-LU-1, the relative viability in the assay with Palbociclib + Trametinib (first compound 0.01 µM) is 0.516; with Palbociclib + Trametinib (first compound 0.03162 µM), 0.439; with Palbociclib + Trametinib (first compound 0.1 µM), 0.39; in the assay with Palbociclib + Trametinib (first compound 0.3162 µM) it was 0.411; with Palbociclib + Trametinib (first compound 1 µM), 0.317; with Palbociclib + Navitoclax (first compound 0.01 µM), 0.938. Besides, the relative viability worked out at 0.757 in the assay with Palbociclib + Navitoclax (first compound 0.03162 µM); 0.725 with Palbociclib + Navitoclax (first compound 0.1 µM); 0.539 in the assay with Palbociclib + Navitoclax (first compound 0.3162 µM); 0.733 with Palbociclib + Navitoclax (first compound 1 µM); 0.218 with Palbociclib + Luminespib (first compound 0.01 µM); 0.177 with Palbociclib + Luminespib (first compound 0.03162 µM). Moreover, the relative viability was found to be 0.222 with Palbociclib + Luminespib (first compound 0.1 µM); 0.223 in the assay with Palbociclib + Luminespib (first compound 0.3162 µM); 0.207 with Palbociclib + Luminespib (first compound 1 µM); 0.546 in the assay with Palbociclib + Phenformin (first compound 0.01 µM); 0.418 in the assay with Palbociclib + Phenformin (first compound 0.03162 µM); 0.309 with Palbociclib + Phenformin (first compound 0.1 µM). Moreover, the relative viability stood at 0.314 with Palbociclib + Phenformin (first compound 0.3162 µM) and 0.254 with Palbociclib + Phenformin (first compound 1 µM).
Consider NCI-H1793, for which the relative viability with Palbociclib + Trametinib (first compound 0.01 µM) turned out to be 0.438; with Palbociclib + Trametinib (first compound 0.03162 µM), 0.431; in the assay with Palbociclib + Trametinib (first compound 0.1 µM), 0.44; with Palbociclib + Trametinib (first compound 0.3162 µM), 0.322; with Palbociclib + Trametinib (first compound 1 µM), 0.281; in the assay with Palbociclib + Navitoclax (first compound 0.01 µM) it was 0.382. Further, the relative viability in the assay with Palbociclib + Navitoclax (first compound 0.03162 µM) turned out to be 0.38; with Palbociclib + Navitoclax (first compound 0.1 µM), 0.506; with Palbociclib + Navitoclax (first compound 0.3162 µM), 0.394; with Palbociclib + Navitoclax (first compound 1 µM), 0.369; with Palbociclib + Luminespib (first compound 0.01 µM), 0.17; with Palbociclib + Luminespib (first compound 0.1 µM) it was 0.243. The relative viability stood at 0.193 in the assay with Palbociclib + Luminespib (first compound 0.3162 µM); 0.2 in the assay with Palbociclib + Luminespib (first compound 1 µM); 0.28 with Palbociclib + Phenformin (first compound 0.01 µM); 0.336 with Palbociclib + Phenformin (first compound 0.1 µM); 0.309 in the assay with Palbociclib + Phenformin (first compound 0.3162 µM); 0.173 with Palbociclib + Phenformin (first compound 1 µM).
As to ChaGo-K-1, the relative viability with Palbociclib + Trametinib (first compound 0.01 µM) was 0.852; in the assay with Palbociclib + Trametinib (first compound 0.1 µM) it was 0.874; with Palbociclib + Trametinib (first compound 0.3162 µM) it was 0.939; with Palbociclib + Trametinib (first compound 1 µM), 0.954; with Palbociclib + Navitoclax (first compound 0.01 µM), 1.22; with Palbociclib + Navitoclax (first compound 0.03162 µM), 0.463. The relative viability came to 1.08 in the assay with Palbociclib + Navitoclax (first compound 0.1 µM); 1.09 with Palbociclib + Navitoclax (first compound 0.3162 µM); 1.18 with Palbociclib + Navitoclax (first compound 1 µM); 0.532 with Palbociclib + Luminespib (first compound 0.01 µM); 0.575 in the assay with Palbociclib + Luminespib (first compound 0.03162 µM); 0.893 in the assay with Palbociclib + Luminespib (first compound 0.1 µM). Further, the relative viability was determined as 0.689 with Palbociclib + Luminespib (first compound 0.3162 µM); 0.62 with Palbociclib + Luminespib (first compound 1 µM); 0.484 with Palbociclib + Phenformin (first compound 0.01 µM); 0.376 with Palbociclib + Phenformin (first compound 0.03162 µM); 0.503 with Palbociclib + Phenformin (first compound 0.1 µM); 0.458 in the assay with Palbociclib + Phenformin (first compound 0.3162 µM). Further, the relative viability with Palbociclib + Phenformin (first compound 1 µM) came to 0.524.
For the cell line NCI-H358, the relative viability in the assay with Palbociclib + Trametinib (first compound 0.01 µM) came to 0.124; with Palbociclib + Trametinib (first compound 0.03162 µM), 0.133; in the assay with Palbociclib + Trametinib (first compound 0.1 µM) it was 0.106; with Palbociclib + Trametinib (first compound 0.3162 µM), 0.12; with Palbociclib + Trametinib (first compound 1 µM) it was 0.106; with Palbociclib + Luminespib (first compound 0.01 µM), 0.325. The relative viability with Palbociclib + Luminespib (first compound 0.1 µM) was 0.176; with Palbociclib + Luminespib (first compound 0.3162 µM), 0.308; in the assay with Palbociclib + Luminespib (first compound 1 µM) it was 0.134; with Palbociclib + Phenformin (first compound 0.01 µM) it was 0.308; with Palbociclib + Phenformin (first compound 0.03162 µM), 0.278; with Palbociclib + Phenformin (first compound 0.1 µM), 0.197. For the same cell line, the relative viability worked out at 0.238 with Palbociclib + Phenformin (first compound 0.3162 µM) and 0.106 with Palbociclib + Phenformin (first compound 1 µM).
On to NCI-H661, for which the relative viability was 0.536 with Palbociclib + Trametinib (first compound 0.01 µM); 0.5 with Palbociclib + Trametinib (first compound 0.03162 µM); 0.423 in the assay with Palbociclib + Trametinib (first compound 0.1 µM); 0.477 in the assay with Palbociclib + Trametinib (first compound 0.3162 µM); 0.336 in the assay with Palbociclib + Trametinib (first compound 1 µM); 0.868 in the assay with Palbociclib + Luminespib (first compound 0.01 µM). In addition, the relative viability with Palbociclib + Luminespib (first compound 0.03162 µM) amounted to 0.789; in the assay with Palbociclib + Luminespib (first compound 0.1 µM), 0.597; in the assay with Palbociclib + Luminespib (first compound 0.3162 µM) it was 0.523; with Palbociclib + Luminespib (first compound 1 µM), 0.416; in the assay with Palbociclib + Phenformin (first compound 0.01 µM), 0.264; with Palbociclib + Phenformin (first compound 0.03162 µM) it was 0.29. In addition, the results for the relative viability with Palbociclib + Phenformin (first compound 0.1 µM), in the assay with Palbociclib + Phenformin (first compound 0.3162 µM) and in the assay with Palbociclib + Phenformin (first compound 1 µM) were 0.258, 0.279 and 0.282, respectively.
In the case of NCI-H522, the relative viability with Palbociclib + Trametinib (first compound 0.01 µM) was 0.818; with Palbociclib + Trametinib (first compound 0.03162 µM) it was 0.576; in the assay with Palbociclib + Trametinib (first compound 0.1 µM), 0.776; with Palbociclib + Trametinib (first compound 0.3162 µM) it was 0.797; in the assay with Palbociclib + Trametinib (first compound 1 µM) it was 0.853; with Palbociclib + Luminespib (first compound 0.01 µM), 1.2. Moreover, the relative viability with Palbociclib + Luminespib (first compound 0.1 µM) was 1.19; with Palbociclib + Luminespib (first compound 0.3162 µM) it was 1.19; in the assay with Palbociclib + Luminespib (first compound 1 µM), 1.18; in the assay with Palbociclib + Phenformin (first compound 0.01 µM), 0.623; with Palbociclib + Phenformin (first compound 0.03162 µM) it was 0.592; in the assay with Palbociclib + Phenformin (first compound 0.1 µM), 0.586. The values for the relative viability in the assay with Palbociclib + Phenformin (first compound 0.3162 µM) and with Palbociclib + Phenformin (first compound 1 µM) were 0.644 and 1.19, respectively.
On to NCI-H2342, for which the relative viability turned out to be 1.09 with Palbociclib + Trametinib (first compound 0.01 µM); 0.825 in the assay with Palbociclib + Trametinib (first compound 0.03162 µM); 0.695 with Palbociclib + Trametinib (first compound 0.1 µM); 0.758 with Palbociclib + Trametinib (first compound 0.3162 µM); 0.669 in the assay with Palbociclib + Trametinib (first compound 1 µM); 0.719 with Palbociclib + Luminespib (first compound 0.01 µM). The relative viability with Palbociclib + Luminespib (first compound 0.03162 µM) is 0.757; with Palbociclib + Luminespib (first compound 0.1 µM), 0.575; with Palbociclib + Luminespib (first compound 0.3162 µM) it was 0.718; in the assay with Palbociclib + Luminespib (first compound 1 µM), 0.549; with Palbociclib + Phenformin (first compound 0.01 µM) it was 0.569; with Palbociclib + Phenformin (first compound 0.03162 µM), 0.555. The relative viability worked out at 0.477 in the assay with Palbociclib + Phenformin (first compound 0.1 µM), 0.564 in the assay with Palbociclib + Phenformin (first compound 0.3162 µM) and 0.441 with Palbociclib + Phenformin (first compound 1 µM).
Regarding HCC-78, the relative viability with Palbociclib + Trametinib (first compound 0.01 µM) was determined as 0.869; with Palbociclib + Trametinib (first compound 0.03162 µM), 0.62; in the assay with Palbociclib + Trametinib (first compound 0.1 µM), 0.524; in the assay with Palbociclib + Trametinib (first compound 0.3162 µM) it was 0.531; with Palbociclib + Trametinib (first compound 1 µM), 0.374; with Palbociclib + Navitoclax (first compound 0.01 µM), 0.812. In addition, the relative viability with Palbociclib + Navitoclax (first compound 0.03162 µM) was found to be 0.473; in the assay with Palbociclib + Navitoclax (first compound 0.1 µM), 0.382; in the assay with Palbociclib + Navitoclax (first compound 0.3162 µM), 0.447; with Palbociclib + Navitoclax (first compound 1 µM), 0.201; with Palbociclib + Phenformin (first compound 0.01 µM), 0.727; with Palbociclib + Phenformin (first compound 0.03162 µM), 0.624. Moreover, the values for the relative viability with Palbociclib + Phenformin (first compound 0.1 µM), in the assay with Palbociclib + Phenformin (first compound 0.3162 µM) and with Palbociclib + Phenformin (first compound 1 µM) were 0.554, 0.44 and 0.318, respectively.
With NCI-H1703, the relative viability came out at 1.18 in the assay with Palbociclib + Navitoclax (first compound 0.01 µM); 0.756 in the assay with Palbociclib + Navitoclax (first compound 0.03162 µM); 0.753 in the assay with Palbociclib + Navitoclax (first compound 0.1 µM); 0.394 in the assay with Palbociclib + Navitoclax (first compound 0.3162 µM); 0.28 with Palbociclib + Navitoclax (first compound 1 µM).
For Calu-6, the relative viability with Palbociclib + Navitoclax (first compound 0.01 µM) was determined as 0.863; with Palbociclib + Navitoclax (first compound 0.03162 µM), 0.792; with Palbociclib + Navitoclax (first compound 0.1 µM), 0.683; with Palbociclib + Navitoclax (first compound 0.3162 µM) it was 0.549; with Palbociclib + Navitoclax (first compound 1 µM) it was 0.479.
For the cell line IA-LM, the relative viability in the assay with Palbociclib + Navitoclax (first compound 0.01 µM) came to 0.589; with Palbociclib + Navitoclax (first compound 0.03162 µM), 0.43; with Palbociclib + Navitoclax (first compound 0.1 µM), 0.234; with Palbociclib + Navitoclax (first compound 0.3162 µM), 0.206; with Palbociclib + Navitoclax (first compound 1 µM), 0.119.
Take EBC-1: the relative viability with Palbociclib + Navitoclax (first compound 0.01 µM) was determined as 0.363; with Palbociclib + Navitoclax (first compound 0.03162 µM), 0.367; in the assay with Palbociclib + Navitoclax (first compound 0.1 µM) it was 0.283; in the assay with Palbociclib + Navitoclax (first compound 0.3162 µM) it was 0.215; with Palbociclib + Navitoclax (first compound 1 µM), 0.195.
